Measurements from patent US20240238296A1, “METHODS OF REGULATING BCL11A EXPRESSION AND TREATMENT OF BCL11A-MEDIATED DISORDERS” (Fulcrum Therapeutics, Inc., priority 2021, published 2024).

Tests used:
[1] = tested on: BCL11A; assay: RNA-Seq of BCL11A mRNA expression in erythroid-differentiated primary CD34+ cells; format: cell-based, human
Protocol: Human Mobilized Peripheral Blood Primary CD34+ cells from healthy donors were expanded from thaw by seeding 100,000 viable cells/mL in a culture flask containing CD34+ Phase 1 Media comprised of IMDM, 100 ng/ml hSCF, 5 ng/ml IL-3, 3 IU/mL EPO, 250 μg/mL transferrin, 2.5% normal human serum, 1% pen/strep, 10 ng/ml heparin, 10 μg/mL insulin. The cells were supplemented by adding an additional 1X culture volume of CD34+ Phase 1 Media on Day 3 after thaw. At Day 7 post-thaw, cells were seeded at 0.111×10^6 cells/ml in 1.5 mLs of Phase 1 media in 12-well plates and compound was applied. On Day 10 post-thaw, cells were differentiated towards the erythroid lineage by complete medium exchange into CD34+ Phase 2 Media comprised of IMDM, 100 ng/ml hSCF, 3 IU/mL EPO, 250 μg/mL transferrin, 2.5% normal human serum, 1% pen/strep, 10 ng/mL heparin, 10 μg/mL insulin and compound treatment was reapplied. On Day 12 post-thaw the plates were centrifuged, and 1 mL of Phase 2 media exchanged with fresh Phase 2 media and compound. The cells were harvested on Day 14 post-thaw for downstream analyses.
(§1) RNA was extracted from Day 14 post-thaw primary CD34+ cells that were differentiated and treated for 7 days with DMSO, 11 nM, 33 nM, 100 nM, or 300 nM of Compound 1 using Ambion mirVana RNA extraction kits. […] Sequenced raw reads of fastq files from all samples were mapped to hg38 genome assemblies using ArrayStudio aligner. Raw read counts and FPKM were calculated for all genes and DESeq2 was applied to calculate differentially expressed genes using general linear model. […]
Changes in BCL11A expression and HBG1 and HBG2 expression in multiple healthy CD34+ donor cells were measured by RNA sequencing (RNA-Seq). […]
RNA was extracted from Day 14 post-thaw primary CD34+ cells that were differentiated and treated for 7 days with DMSO, 100 nM of Compound 1, or 100 nM of Compound 2 using Ambion mirVana RNA extraction kits. […] Sequenced raw reads of fastq files from all samples were mapped to hg38 genome assemblies using ArrayStudio aligner. […]

[2] = tested on: HBG2; assay: RNA-Seq of HBG2 expression in erythroid-differentiated primary CD34+ cells; format: cell-based, human
Protocol: (§2) Changes in BCL11A expression and HBG1 and HBG2 expression in multiple healthy CD34+ donor cells were measured by RNA sequencing (RNA-Seq). Human Mobilized Peripheral Blood Primary CD34+ cells from 2 healthy donors and 1 sickle cell trait donor were expanded from thaw by seeding 100,000 viable cells/mL in a culture flask containing CD34+ Phase 1 Media comprised of IMDM, 100 ng/ml hSCF, 5 ng/ml IL-3, 3 IU/mL EPO, 250 μg/mL transferrin, 2.5% normal human serum, 1% pen/strep, 10 ng/ml heparin, 10 μg/mL insulin. The cells were supplemented by adding an additional 1X culture volume of CD34+ Phase 1 Media on Day 3 after thaw. At Day 7 post-thaw, cells were seeded at 0.111×10^6 cells/ml in 1.5 mLs of Phase 1 media in 12-well plates and compound was applied. On Day 10 post-thaw, cells were differentiated towards the erythroid lineage by complete medium exchange into CD34+ Phase 2 Media comprised of IMDM, 100 ng/ml hSCF, 3 IU/mL EPO, 250 μg/mL transferrin, 2.5% normal human serum, 1% pen/strep, 10 ng/ml heparin, 10 μg/mL insulin and compound treatment was reapplied. […]
as §1, with “DMSO,” for “DMSO, 11 nM, 33 nM,”, “100” for “100 nM, or 300”, “Compound 1, or 100 nM of Compound 2” for “Compound 1”
as §1

[3] = tested on: HBG1; assay: RNA-Seq of HBG1 expression in erythroid-differentiated primary CD34+ cells; format: cell-based, human
Protocol: as §2
as §1, with “DMSO,” for “DMSO, 11 nM, 33 nM,”, “100” for “100 nM, or 300”, “Compound 1, or 100 nM of Compound 2” for “Compound 1”
as §1

[4] = tested on: HbF; assay: Percentage HbF by cation-exchange HPLC in erythroid-differentiated primary CD34+ cells; format: cell-based, human; details: Example 2; 100 nM, 7 days
Protocol: as §2, with “applied.” for “applied. On Day 10 post-thaw, cells were differentiated towards the erythroid lineage by complete medium exchange into CD34+ Phase 2 Media comprised of IMDM, 100 ng/ml hSCF, 3 IU/mL EPO, 250 μg/mL transferrin, 2.5% normal human serum, 1% pen/strep, 10 ng/ml heparin, 10 μg/mL insulin and compound treatment was reapplied.”
Hemoglobin protein tetramers were analyzed using HPLC analysis following a protocol derived from Gravett et al. Science 2018. […] Hemolysates were cleared by centrifugation and analyzed for identity and levels of hemoglobin variants (HbF and HbA) by cation-exchange HPLC with a weak cation-exchange column (Poly CAT A: 35 mm×4.6 mm, Poly LC, Inc., Columbia, MD). […] Species were monitored with UV absorbance at 410 nm. […] The abundance of HbF, HbS, and HbA was quantified by calculating the area under the curve for each species in the samples. % HbF was calculated as HbF/(HbF+HbS+HbA)*100. […]

[5] = tested on: TFRC; assay: RNA-Seq of housekeeping gene TFRC expression in primary CD34+ cells; format: cell-based, human; details: Example 2; 100 nM, 7 days
Protocol: as §2, with “applied.” for “applied. On Day 10 post-thaw, cells were differentiated towards the erythroid lineage by complete medium exchange into CD34+ Phase 2 Media comprised of IMDM, 100 ng/ml hSCF, 3 IU/mL EPO, 250 μg/mL transferrin, 2.5% normal human serum, 1% pen/strep, 10 ng/ml heparin, 10 μg/mL insulin and compound treatment was reapplied.”
as §1, with “DMSO,” for “DMSO, 11 nM, 33 nM,”, “100” for “100 nM, or 300”, “Compound 1, or 100 nM of Compound 2” for “Compound 1”

[6] = tested on: HbF; assay: % HbF of total hemoglobin by HPLC from whole blood in Townes SCD mouse model; format: in vivo; details: Townes SCD mice; whole blood after 21 days of treatment; FIG. 8C
Description: (§3) The Townes SCD mouse model was used to study the in vivo pharmacologic activity of Compound 1 in a model with the relevant human globin genes (HBG1 and HBBE6V) integrated into the mouse beta globin locus. Hydroxyurea was used as a benchmark for this 21-day study. […] People living with sickle cell present with impaired erythropoiesis leading to elevated reticulocytes, decreased red blood cell count, and total hemoglobin, and additionally display markers of inflammation such as elevated neutrophils and white blood cells. Similarly, the Townes mouse model recapitulates these hematological aspects of SCD.

[7] = tested on: H3K27me3; assay: Target engagement: H3K27me3 flow cytometry in Ter119+ bone marrow cells of Townes SCD mice; format: in vivo, mouse; details: after 28 days of treatment, FIG. 8A
Description: as §3, with “Hydroxyurea was used as a benchmark for this 21-day study.” left out

[8] = Example 2, 100 nM, 7 days, all donors studied (D069, D144, D326), FIG. 2
[9] = Example 5, 4-point concentration response curves, FIG. 5A
[10] = Example 5, 4-point concentration response curves, FIG. 5C
[11] = Example 5, 4-point concentration response curves, FIG. 5B

SMILES | BCL11A expression [1, 8] | BCL11A expression [1, 9] | HBG2 expression [2, 8] | HBG2 expression [2, 10] | HBG1 expression [3, 8] | HBG1 expression [3, 11] | increase in percentage HbF by HPLC [4] | expression of the housekeeping gene TFRC [5] | % HbF of total hemoglobin by HPLC [6] | levels of H3K27me3 in Ter119+ bone marrow cells [7]
Cn1nccc1-c1cc2c(n3cnnc13)NCc1c(F)ccc3c1[C@H](CO3)CO2 [Compound 2] | decreased | reduction | increase | induction | increase | induction | approximately 2 fold | did not result in substantial changes in expression | – | –
COc1cc(C)[nH]c(=O)c1CN1CCc2c(Cl)cc([C@@H](OC)C3COC3)c(Cl)c2C1=O [Compound 3] | – | reduction | – | induction | – | induction | – | – | – | –
NC(=O)NO [hydroxyurea] | – | – | – | – | – | – | – | – | no change | not
